Source: patent US10426762B2, “Inhibitors of hepatitis C virus polymerase” (COCRYSTAL DISCOVERY, INC., priority 2012, dated 2019)

What was measured:
[1] = biological target: T1, HCV1b NS5B polymerase delta 21 (Hepatitis C virus genotype 1b, UniProt P26663); test: RNA-dependent RNA HCV NS5B (polymerase) assay and IC50 determination; assay type: biochemical
T1 construct: purified HCV1b NS5B polymerase delta 21
Procedure: Example 212—RNA-Dependent RNA HCV NS5B (Polymerase) Assay and IC50 Determination
In vitro RNA-dependent RNA polymerase activity was determined in a reaction mixture (50 μL) containing 50 mM Tris-HCl, pH 7.5, 5 mM MgCl2, 1 mM dithiothreitol, 0.5% Triton® X-100, 10 μM of UTP, 0.1-0.5 μCi of α-^32P UTP (Perkin Elmer Life Sciences), 1 μg of polyA:U16 (Midland Oligo), and 0.6 μg of purified HCV1b NS5B polymerase delta 21. Different concentrations of compounds were added to the reaction mixtures. The reaction was carried out at RT (23° C.) for 60 min and then stopped by the addition of 100 μL of 50 mM EDTA. The reaction mixtures were filtered through either a DE81 membrane or a positively charged nylon membrane, and the membranes were then extensively washed with 30 mM sodium citrate, pH 7.0 and 300 mM NaCl. The radiolabeled RNA products were quantitated using a Storm™ PhosphorImager™ (GE life Sciences). IC50 values were calculated using GraFit 6 and GraphPad Prism 5 from triplicate assays.

[2] = tested on: HCV1b replicon; test: HCV replicon assay (Huh-7 cell line with HCV1b replicon containing luciferase reporter) and EC50 determination; assay type: cell-based; settings: Hepatitis C virus, Huh-7 HCV1b replicon luciferase reporter, 72 hr, triplicate
Procedure: Example 213—HCV Replicon Assay and EC50 Determination
The antiviral activity of compounds against hepatitis C virus was determined by a hepatitis C virus replicon reporter cell line developed by Bartenschlager (Lohmann et al., Science 1999, 285:110-113; Bartenschlager et al., Antiviral Res 2003, 60:91-102). This cell-based assay utilized a liver cell carcinoma (Huh-7) cell line stably transformed with an HCV1b replicon containing a luciferase reporter gene. Varied concentrations of compounds were added to the reporter cell line, and further incubated at 37° C. for 72 hr in DMEM supplemented with 10% FCS. The inhibitory effects of experimental compounds or the reference compound, interferon alpha (INFα), on HCV replication were measured by luciferase activity using the Britelite™ plus luminescence reporter gene kit (Perkin Elmer, Shelton, Conn.). The Britelite plus reagent was added to the 96-well plates containing the HCV reporter cells, and luminescence was measured within 15 min using a Wallac 1450 Microbeta® Trilux liquid scintillation counter. EC50 values were calculated using GraFit 6 and GraphPad Prism 5 from triplicate HCV replicon assays.

T1 sequence (P26663 2420-2989): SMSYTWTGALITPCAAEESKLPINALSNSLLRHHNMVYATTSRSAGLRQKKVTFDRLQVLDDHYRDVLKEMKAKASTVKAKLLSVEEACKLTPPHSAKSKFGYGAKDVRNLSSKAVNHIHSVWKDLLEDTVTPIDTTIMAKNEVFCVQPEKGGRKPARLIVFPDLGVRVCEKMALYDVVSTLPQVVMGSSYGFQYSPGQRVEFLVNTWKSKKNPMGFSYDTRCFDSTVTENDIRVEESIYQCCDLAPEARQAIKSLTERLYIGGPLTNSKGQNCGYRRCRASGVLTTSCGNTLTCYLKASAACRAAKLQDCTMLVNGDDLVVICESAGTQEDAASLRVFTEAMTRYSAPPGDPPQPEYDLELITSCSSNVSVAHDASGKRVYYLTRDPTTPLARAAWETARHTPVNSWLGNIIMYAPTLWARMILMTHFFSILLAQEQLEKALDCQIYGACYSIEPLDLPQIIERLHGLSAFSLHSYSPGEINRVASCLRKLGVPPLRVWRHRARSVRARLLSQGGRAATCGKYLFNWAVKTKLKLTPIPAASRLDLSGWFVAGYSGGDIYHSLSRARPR

| SMILES | IC50 [1] | EC50 ([2]; Table 2) | EC50 ([2]; Table 1) |
| --- | --- | --- | --- |
| CC1CCC(C2=C(c3cc(-c4ccc(NC(=O)c5cscn5)cc4)sc3C(=O)O)CN(CC(O)CO)CC2)CC1 (stereo not shown) [Example 190, 3-(1-(2,3-dihydroxypropyl)-4-(4-methylcyclohexyl)-1,2,5,6-tetrahydropyridin-3-yl)-5-(4-(thiazole-4-carboxamido)phenyl)thiophene-2-carboxylic acid] | < 3 µM | < 3 µM |  |
| CC1CCC(C2=C(c3cc(-c4ccc(NC(=O)c5cscn5)c(F)c4)sc3C(=O)O)CN(C)CC2)CC1 (stereo not shown) [Example 198] | < 3 µM |  |  |
| Cc1cc(-c2cc(C3=C(C4CCC(C)CC4)CCN(Cc4cnn(C)c4)C3)c(C(=O)O)s2)ccc1NC(=O)c1cscn1 (stereo not shown) [Example 199, 3-(1-((1-methyl-1H-pyrazol-4-yl)methyl)-4-(4-methylcyclohexyl)-1,2,5,6-tetrahydropyridin-3-yl)-5-(3-methyl-4-(thiazole-4-carboxamido)phenyl)thiophene-2-carboxylic acid] | < 3 µM |  |  |
| CN1CCC(C2CCC(F)(F)CC2)=C(c2cc(-c3ccc(NC(=O)c4cscn4)cc3)sc2C(=O)O)C1 [Example 200, 3-(4-(4,4-difluorocyclohexyl)-1-methyl-1,2,5,6-tetrahydropyridin-3-yl)-5-(4-(thiazole-4-carboxamido)phenyl)thiophene-2-carboxylic acid] | < 3 µM |  | 3 to 10 µM |
| CC1CCC(C2=C(c3cc(-c4ccc(N)nc4)sc3C(=O)O)CCN(C)C2)CC1 (stereo not shown) [Example 203, 5-(6-aminopyridin-3-yl)-3-(1-methyl-5-(4-methylcyclohexyl)-1,2,3,6-tetrahydropyridin-4-yl)thiophene-2-carboxylic acid] | < 3 µM |  |  |
| CN1CCC(c2cc(-c3ccccc3)sc2C(=O)O)=C(C2CCCCCC2)C1 [Example 206, 3-(5-Cycloheptyl-1-methyl-1,2,3,6-tetrahydro-pyridin-4-yl)-5-phenyl-thiophene-2-carboxylic acid] | < 3 µM |  |  |
| CN1CCC(c2cc(-c3ccccc3)sc2C(=O)O)=C(C2CCCC2)C1 [Example 207, 3-(5-Cyclopentyl-1-methyl-1,2,3,6-tetrahydro-pyridin-4-yl)-5-phenyl-thiophene-2-carboxylic acid] | 3 to 10 µM |  |  |
| CN1CCC(c2cc(-c3ccccc3)sc2C(=O)O)=C(c2ccc(Cl)cc2)C1 [Example 208, 3-[5-(4-Chloro-phenyl)-1-methyl-1,2,3,6-tetrahydro-pyridin-4-yl]-5-phenyl-thiophene-2-carboxylic acid] | > 10 µM |  |  |
| CCCCCC1=C(c2cc(-c3ccccc3)sc2C(=O)O)CCN(C)C1 [Example 209, 3-(1-Methyl-5-pentyl-1,2,3,6-tetrahydro-pyridin-4-yl)-5-phenyl-thiophene-2-carboxylic acid] | 3 to 10 µM |  |  |
| CN1CCC(C2CCCCC2)=C(c2cc(-c3ccc(NC(=O)c4cscn4)cc3)sc2C(=O)O)C1 [Example 210, 3-(4-Cyclohexyl-1-methyl-1,2,5,6-tetrahydro-pyridin-3-yl)-5-{4-[(thiazole-4-carbonyl)-amino]-phenyl}-thiophene-2-carboxylic acid] | < 3 µM |  |  |
| CN1CCC(c2cc(C#CC(C)(C)C)sc2C(=O)O)=C(C2CCCCC2)C1 [Example 211, 3-(5-Cyclohexyl-1-methyl-1,2,3,6-tetrahydro-pyridin-4-yl)-5-(3,3-dimethyl-but-1-ynyl)-thiophene-2-carboxylic acid] | < 3 µM |  |  |
